In ChEMBL document CHEMBL3885861, “Open TG-GATES”:

Species: Rattus norvegicus
Test: Open TG-GATES - Regimen: Daily Repeat
Format: toxicity, organism-based, Sprague-Dawley
Parameters: regimen Daily Repeat, gender Male, age 6 weeks
Details: in vivo, po, route gavage; for APTT / Bas / Eos / Fbg / Hb / Ht / Lym / MCHC / MCV / Mono / Neu / PT / Plat / RBC / Ret / WBC / MCH: tissue Blood; for KIDNEY_L / KIDNEY_R / KIDNEY_TOTAL: tissue Kidney; for LIVER: tissue Liver; for ALP / ALT / AST / BUN / CRE / Ca / DBIL / GLC / K / LDH / Na / PL / RALB / TBIL / TC / TG / TP / gamma-GTP: tissue Plasma
[1] = 0 mg/kg, 72 h, dose level Control, time 3 day
[2] = 0 mg/kg, […], dose level Control, time 7 day
[3] = 0 mg/kg, […], dose level Control, time 14 day
[4] = 0 mg/kg, […], dose level Control, time 28 day
[5] = 20 mg/kg, 72 h, dose level Low, time 3 day
[6] = 20 mg/kg, […], dose level Low, time 7 day
[7] = 20 mg/kg, […], dose level Low, time 14 day
[8] = 20 mg/kg, […], dose level Low, time 28 day

CCCCc1oc2ccccc2c1C(=O)c1cc(I)c(OCCN(CC)CC)c(I)c1 [AMIODARONE]
TERMINAL_BW [1]: 226.9 g | APTT [1]: 18.2 s | Bas [1]: 0% | Eos [1]: 0.8% | Fbg [1]: 229 mg/dL | Hb [1]: 13.5 g/dL | Ht [1]: 39.6% | Lym [1]: 74.8% | MCHC [1]: 34.1% | MCV [1]: 62.7 fL | Mono [1]: 3% | Neu [1]: 20.4% | PT [1]: 12.3 s | Plat [1]: 122.3 x10_4/uL | RBC [1]: 631.4 x10_4/ul | Ret [1]: 6.4% | WBC [1]: 91.2 x10_2/uL | KIDNEY_L [1]: 1 g | KIDNEY_R [1]: 1 g | KIDNEY_TOTAL [1]: 2 g | LIVER [1]: 11.2 g | ALP [1]: 985.8 IU/L | ALT [1]: 37.8 IU/L | AST [1]: 72.6 IU/L | BUN [1]: 16.2 mg/dL | CRE [1]: 0.4 mg/dL | Ca [1]: 10.9 mg/dL | DBIL [1]: 0.096 mg/dL | GLC [1]: 207.4 mg/dL | K [1]: 3.9 meq/L | LDH [1]: 213 IU/L | Na [1]: 140.6 meq/L | PL [1]: 162.4 mg/dL | RALB [1]: 3.5 g/dL | TBIL [1]: 0.1 mg/dL | TC [1]: 77.6 mg/dL | TG [1]: 113.2 mg/dL | TP [1]: 5.8 g/dL | gamma-GTP [1]: 1 IU/L | TERMINAL_BW [2]: 253.9 g | TERMINAL_BW [3]: 312.1 g | TERMINAL_BW [4]: 382 g | APTT [2]: 19.5 s | Bas [2]: 0% | Eos [2]: 1% | Fbg [2]: 218.2 mg/dL | Hb [2]: 13.6 g/dL | Ht [2]: 39.8% | Lym [2]: 78.4% | MCH [2]: 21.2 pg | MCV [2]: 61.9 fL | Mono [2]: 2.4% | Neu [2]: 17% | PT [2]: 12 s | Plat [2]: 117.4 x10_4/uL | RBC [2]: 642.8 x10_4/ul | Ret [2]: 5.1% | WBC [2]: 102.5 x10_2/uL | APTT [3]: 19.9 s | Bas [3]: 0% | Eos [3]: 0.8% | Fbg [3]: 231.8 mg/dL | Hb [3]: 14.4 g/dL | Ht [3]: 41.2% | Lym [3]: 81.4% | MCH [3]: 20.9 pg | MCHC [3]: 34.8% | MCV [3]: 59.9 fL | Mono [3]: 2.8% | Neu [3]: 13.8% | Plat [3]: 128.6 x10_4/uL | RBC [3]: 689.2 x10_4/ul | Ret [3]: 4.6% | WBC [3]: 85.2 x10_2/uL | APTT [4]: 21.2 s | Bas [4]: 0% | Eos [4]: 1% | Fbg [4]: 224.6 mg/dL | Hb [4]: 15.5 g/dL | Ht [4]: 43.9% | Lym [4]: 78.4% | MCH [4]: 19.9 pg | MCHC [4]: 35.4% | MCV [4]: 56.3 fL | Mono [4]: 2.4% | Neu [4]: 17.2% | PT [4]: 12.4 s | Plat [4]: 111.1 x10_4/uL | RBC [4]: 779.2 x10_4/ul | Ret [4]: 2.6% | WBC [4]: 92.4 x10_2/uL | KIDNEY_L [2]: 1.1 g | KIDNEY_R [2]: 1.1 g | KIDNEY_TOTAL [2]: 2.2 g | KIDNEY_L [3]: 1.2 g | KIDNEY_R [3]: 1.2 g | KIDNEY_TOTAL [3]: 2.5 g | KIDNEY_L [4]: 1.4 g | KIDNEY_R [4]: 1.3 g | KIDNEY_TOTAL [4]: 2.7 g | LIVER [2]: 12.1 g | LIVER [3]: 14.6 g | LIVER [4]: 15 g | ALP [2]: 963.6 IU/L | ALT [2]: 34 IU/L | AST [2]: 62.6 IU/L | BUN [2]: 16.6 mg/dL | CRE [2]: 0.4 mg/dL | Ca [2]: 10.6 mg/dL | DBIL [2]: 0.1 mg/dL | GLC [2]: 209.6 mg/dL | K [2]: 3.8 meq/L | LDH [2]: 179.6 IU/L | Na [2]: 140.4 meq/L | PL [2]: 158.4 mg/dL | RALB [2]: 3.4 g/dL | TBIL [2]: 0.2 mg/dL | TC [2]: 73.6 mg/dL | TG [2]: 116.6 mg/dL | TP [2]: 5.6 g/dL | gamma-GTP [2]: 1.6 IU/L | ALP [3]: 896.2 IU/L | ALT [3]: 40.6 IU/L | AST [3]: 70.8 IU/L | BUN [3]: 16.6 mg/dL | CRE [3]: 0.5 mg/dL | Ca [3]: 10.7 mg/dL | DBIL [3]: 0.09 mg/dL | GLC [3]: 233.8 mg/dL | K [3]: 3.5 meq/L | LDH [3]: 206.4 IU/L | Na [3]: 140.2 meq/L | PL [3]: 160.8 mg/dL | RALB [3]: 3.5 g/dL | TBIL [3]: 0.2 mg/dL | TG [3]: 117 mg/dL | TP [3]: 6 g/dL | gamma-GTP [3]: 1 IU/L | ALP [4]: 614.8 IU/L | ALT [4]: 37.6 IU/L | AST [4]: 61.6 IU/L | BUN [4]: 17.4 mg/dL | CRE [4]: 0.4 mg/dL | Ca [4]: 10.4 mg/dL | DBIL [4]: 0.1 mg/dL | GLC [4]: 214.4 mg/dL | K [4]: 3.7 meq/L | LDH [4]: 158.6 IU/L | Na [4]: 140.2 meq/L | PL [4]: 151 mg/dL | RALB [4]: 3.4 g/dL | TBIL [4]: 0.2 mg/dL | TC [4]: 67 mg/dL | TG [4]: 152.4 mg/dL | TP [4]: 6 g/dL | gamma-GTP [4]: 1 IU/L | TERMINAL_BW [5]: 226.2 g | Bas [5]: 0% | Eos [5]: 0.8% | Fbg [5]: 227.8 mg/dL | Hb [5]: 13.5 g/dL | Ht [5]: 39% | Lym [5]: 78.2% | MCH [5]: 22.1 pg | MCV [5]: 63.9 fL | Mono [5]: 3% | Neu [5]: 16.6% | PT [5]: 12.8 s | Plat [5]: 125.2 x10_4/uL | RBC [5]: 610.8 x10_4/ul | Ret [5]: 6.1% | WBC [5]: 101.8 x10_2/uL | KIDNEY_L [5]: 1 g | KIDNEY_R [5]: 1 g | KIDNEY_TOTAL [5]: 2.1 g | LIVER [5]: 11 g | ALP [5]: 1159.8 IU/L | ALT [5]: 38.8 IU/L | AST [5]: 71 IU/L | BUN [5]: 17 mg/dL | CRE [5]: 0.4 mg/dL | Ca [5]: 10.7 mg/dL | DBIL [5]: 0.088 mg/dL | GLC [5]: 200 mg/dL | K [5]: 3.8 meq/L | LDH [5]: 215.2 IU/L | Na [5]: 140.4 meq/L | PL [5]: 144.2 mg/dL | RALB [5]: 3.4 g/dL | TBIL [5]: 0.1 mg/dL | TC [5]: 72.8 mg/dL | TG [5]: 88.8 mg/dL | TP [5]: 5.7 g/dL | gamma-GTP [5]: 1.6 IU/L | TERMINAL_BW [6]: 267.4 g | TERMINAL_BW [7]: 322 g | TERMINAL_BW [8]: 379.8 g | APTT [6]: 18.5 s | Bas [6]: 0% | Eos [6]: 0.8% | Fbg [6]: 222 mg/dL | Ht [6]: 39.1% | Lym [6]: 79.6% | MCH [6]: 21.1 pg | MCHC [6]: 34.1% | MCV [6]: 62 fL | Mono [6]: 2.8% | Neu [6]: 15.6% | Plat [6]: 126.6 x10_4/uL | RBC [6]: 630 x10_4/ul | Ret [6]: 6.1% | WBC [6]: 117.1 x10_2/uL | APTT [7]: 19.7 s | Bas [7]: 0% | Eos [7]: 1% | Fbg [7]: 216.8 mg/dL | Hb [7]: 14.2 g/dL | Ht [7]: 41.2% | Lym [7]: 79.6% | MCH [7]: 20.4 pg | MCV [7]: 59.2 fL | Mono [7]: 2.8% | Neu [7]: 15.6% | PT [7]: 12.8 s | Plat [7]: 116.8 x10_4/uL | RBC [7]: 696.4 x10_4/ul | Ret [7]: 4.6% | WBC [7]: 84.5 x10_2/uL | APTT [8]: 19.6 s | Bas [8]: 0% | Eos [8]: 1.2% | Fbg [8]: 221.6 mg/dL | Ht [8]: 43.5% | Lym [8]: 78.2% | MCH [8]: 19.6 pg | MCHC [8]: 35.1% | MCV [8]: 56 fL | Mono [8]: 2.8% | Neu [8]: 16.6% | PT [8]: 12.3 s | Plat [8]: 109.6 x10_4/uL | RBC [8]: 777.2 x10_4/ul | Ret [8]: 2.7% | WBC [8]: 117.6 x10_2/uL | KIDNEY_L [6]: 1.1 g | KIDNEY_R [6]: 1.1 g | KIDNEY_TOTAL [6]: 2.2 g | KIDNEY_L [7]: 1.3 g | KIDNEY_R [7]: 1.3 g | KIDNEY_TOTAL [7]: 2.5 g | KIDNEY_L [8]: 1.3 g | KIDNEY_R [8]: 1.3 g | KIDNEY_TOTAL [8]: 2.6 g | LIVER [6]: 12.7 g | LIVER [7]: 14.6 g | LIVER [8]: 15.5 g | ALP [6]: 1065 IU/L | ALT [6]: 33 IU/L | AST [6]: 61.8 IU/L | CRE [6]: 0.4 mg/dL | Ca [6]: 10.7 mg/dL | DBIL [6]: 0.1 mg/dL | GLC [6]: 216.6 mg/dL | K [6]: 3.8 meq/L | LDH [6]: 197.4 IU/L | Na [6]: 140.6 meq/L | RALB [6]: 3.3 g/dL | TBIL [6]: 0.2 mg/dL | TC [6]: 70.8 mg/dL | TG [6]: 89.4 mg/dL | TP [6]: 5.5 g/dL | gamma-GTP [6]: 1.2 IU/L | ALP [7]: 861.4 IU/L | ALT [7]: 38 IU/L | AST [7]: 63.6 IU/L | BUN [7]: 17.4 mg/dL | CRE [7]: 0.4 mg/dL | Ca [7]: 10.5 mg/dL | DBIL [7]: 0.1 mg/dL | GLC [7]: 220.6 mg/dL | K [7]: 4 meq/L | LDH [7]: 196.2 IU/L | Na [7]: 139.6 meq/L | PL [7]: 161.6 mg/dL | RALB [7]: 3.3 g/dL | TBIL [7]: 0.2 mg/dL | TC [7]: 81.2 mg/dL | TG [7]: 148.2 mg/dL | TP [7]: 5.7 g/dL | gamma-GTP [7]: 1.4 IU/L | ALP [8]: 765.6 IU/L | ALT [8]: 40 IU/L | AST [8]: 66.2 IU/L | BUN [8]: 18.2 mg/dL | CRE [8]: 0.5 mg/dL | Ca [8]: 10.5 mg/dL | DBIL [8]: 0.1 mg/dL | GLC [8]: 213.2 mg/dL | K [8]: 3.8 meq/L | LDH [8]: 192.6 IU/L | Na [8]: 140.4 meq/L | PL [8]: 160.8 mg/dL | RALB [8]: 3.5 g/dL | TBIL [8]: 0.2 mg/dL | TC [8]: 73.8 mg/dL | TG [8]: 164.6 mg/dL | TP [8]: 6.1 g/dL | gamma-GTP [8]: 1.4 IU/L
